Substitutions are numbered along the chain they refer to.
Assays:
[1] = biological target: cytoplasmic domain (CPD) of the mouse Kir3.2 E236R mutant (mouse); assay: not stated; purified CPD E236R in solution; the method for the oligomeric state is not told
[2] = biological target: cytoplasmic domain (CPD) of the mouse Kir3.2 E236R mutant (mouse); assay: crystal structure; sitting drops; reservoir 15% (v/v) ethanol, 0.1 M HEPES-NaOH (pH 7.5), 0.2 M MgCl2; 4°C; space group P4212; 2.0 Å
Kir3.2 WT = assay: Inside-out patch clamp recording of channel activity; format: cell-based, mouse; settings: Kir3.2 WT in HEK293T inside-out patches, −100 mV
Protocol: (§1) The Kir3.2d and m2R subcloned into pcDNA3 (Invitrogen) were transfected into HEK293T cells using the Lipofectamine Plus reagent (Invitrogen, Carlsbad, CA). Single-channel activity was recorded in a cell-attached configuration at a holding potential of -100 mV using a patch-clamp amplifier (Axopatch 200B; Axon Instruments). The current traces were low-pass filtered at 1 kHz and digitized at 10 kHz. The glass pipettes had resistances of 2.5–3.5 MΩ when filled with the pipette solution, which contained 135 mM KCl, 1 mM CaCl2, 1.6 mM MgCl2, 5 mM HEPES, and 5 μM ACh; the bath solution was a Tyrode solution. A 50% crossing criterion for the current amplitude was used to judge the single-channel activity.
(§2) Inside-out patch clamp experiments were performed by the excision of patch membranes in the cell-attached configuration. The bath solution consisted of 135 mM KCl, 5 mM EGTA, 2 mM MgCl2 and 5 mM HEPES. The holding potential was -100 mV. We perfused ATP at the intracellular side to produce PIP2 at the inner leaflet of the plasma membrane, GTP (3 μM) to produce Gβγ mildly and GTPγS (10 μM) to generate Gβγ maximally. The pH of all solutions was adjusted to 7.35 with KOH prior to the experiments. All experiments were conducted at ambient temperature (20–25°C).
Figure 5 Inside-out patch recordings of Kir3.2 WT and mutant channels. […]

Kir3.2 M313G = biological target: T1, Kir3.2 M313G (Mus musculus, UniProt P48542, I313G); assay: as above; format: cell-based; settings: Kir3.2 M313G in HEK293T inside-out patches; ATP perfused at 2 mM; −100 mV
T1 sequence (P48542 19-425 I313G): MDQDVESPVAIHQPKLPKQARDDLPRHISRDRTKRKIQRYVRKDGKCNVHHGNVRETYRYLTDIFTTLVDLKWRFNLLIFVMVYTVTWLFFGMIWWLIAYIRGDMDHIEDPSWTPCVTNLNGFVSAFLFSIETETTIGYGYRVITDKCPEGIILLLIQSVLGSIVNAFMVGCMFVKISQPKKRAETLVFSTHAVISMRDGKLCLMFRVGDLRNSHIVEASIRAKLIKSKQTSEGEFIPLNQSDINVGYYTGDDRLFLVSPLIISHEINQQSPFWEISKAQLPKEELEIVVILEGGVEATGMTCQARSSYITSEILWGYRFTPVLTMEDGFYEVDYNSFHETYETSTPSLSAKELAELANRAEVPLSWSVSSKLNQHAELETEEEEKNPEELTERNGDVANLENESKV
T1 sequence (P06199 1-466 partner): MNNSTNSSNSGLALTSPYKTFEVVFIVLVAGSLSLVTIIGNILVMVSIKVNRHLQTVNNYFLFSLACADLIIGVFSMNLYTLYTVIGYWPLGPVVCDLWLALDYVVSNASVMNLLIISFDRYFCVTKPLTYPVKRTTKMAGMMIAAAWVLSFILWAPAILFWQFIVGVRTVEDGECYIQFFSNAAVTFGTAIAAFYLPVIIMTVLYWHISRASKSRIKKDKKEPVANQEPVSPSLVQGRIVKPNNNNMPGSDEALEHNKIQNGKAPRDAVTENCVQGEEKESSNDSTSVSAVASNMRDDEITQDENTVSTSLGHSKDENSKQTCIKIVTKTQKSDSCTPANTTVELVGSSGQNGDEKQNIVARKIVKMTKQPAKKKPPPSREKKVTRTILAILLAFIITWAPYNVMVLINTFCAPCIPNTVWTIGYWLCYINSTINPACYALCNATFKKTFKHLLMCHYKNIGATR
Protocol: as §1, §2
(§3) Figure 5 Inside-out patch recordings of Kir3.2 WT and mutant channels. Inside-out membrane patches were obtained from HEK293T cells expressing either Kir3.2 WT (A), M313G (B) or M313T mutant (C) channels. Experiments were conducted in symmetric 135 mM K^+ solutions with a holding potential of -100 mV. Perfusion of ATP was for the generation of PIP2 at the inner leaflet of the excised patch membranes. The protocol used for perfusion of substances to the intracellular side of the patch membrane is indicated by bars above the current traces.

Kir3.2 M313T = biological target: T2, Kir3.2 M313T (Mus musculus, UniProt P48542, I313T); assay: as above; format: cell-based; settings: Kir3.2 M313T in HEK293T inside-out patches, −100 mV
T2 sequence (P48542 19-425 I313T): T1 sequence (P48542 19-425 I313G) with G295T
T2 sequence (P06199 1-466 partner): T1 sequence (P06199 1-466 partner)
Protocol: as §1, §2, §3

Molecule: cytoplasmic domain (CPD) of the mouse Kir3.2 E236R mutant (domain or fragment)
- stoichiometry N [1]: 4
- stoichiometry N [2]: 4

Molecule: Nc1ncnc2c1ncn2[C@@H]1O[C@H](COP(=O)(O)OP(=O)(O)OP(=O)(O)O)[C@@H](O)[C@H]1O [ATP]
- Channel activity as % of that evoked by 10 μM GTPγS (Kir3.2 WT; ATP perfused at 2 mM): 15 ± 4%
- Channel activity as % of that evoked by 10 μM GTPγS (Kir3.2 M313G): 59 ± 6%
- Sensitivity to ATP perfusion (Kir3.2 M313T; in contrast to M313G): less sensitive

Molecule: Nc1nc2c(ncn2[C@@H]2O[C@H](COP(=O)(O)OP(=O)(O)OP(=O)(O)O)[C@@H](O)[C@H]2O)c(=O)[nH]1 [GTP]
- Channel activity as % of the response evoked by GTPγS (Kir3.2 WT; GTP (3 μM)): 4 ± 2%
- Channel activity as % of the response evoked by GTPγS (Kir3.2 M313T; GTP (3 μM)): about 11 ± 2%
